According to paper PMC6271101, “Antioxidant, 5-Lipoxygenase Inhibitory and Cytotoxic Activities of Compounds Isolated from the Ferula lutea Flowers” (Molecules, 2014):
Where “and” joins values, the source holds several entries; their conditions need not be identical. Equal entries are not always repeated. Where two headings read alike, the source gives them in different places.

Assays:
[1] = MTT cytotoxicity assay, HCT-116; format: cell-based; conditions: human, HCT-116 colon carcinoma cells; HCT-116, MTT; read-out: Cytotoxic Activity (IC50 µmol/L) HCT-116
Description: (§1) The human cancer cell line was used for cytotoxic assay: (HCT-116, IGROV-1 and OVCAR-3). The cells were grown in RPMI-1640 medium supplemented with 10% faetal calf serum (Gibco, Langley, OK, USA), air and 5% CO2. The isolate was added to a medium containing 1 × 10^6 cells/mL, 2 mM L-glutamine and 50 μg/mL gentamycin, and kept at 37 °C in a fully humidified atmosphere. After 18 h of incubation at 37 °C in 5% CO2 incubator, the tubes were centrifuged at 8000 g for 10 min. The supernatant was decanted, and the pellets taken and washed with 20 mM of phosphate buffered saline solution. Each pellet was dissolved in 100 μL (2 mg/mL) MTT solution in a tube, incubated at 22 °C for 4 h and centrifuged at 8000 g for 10 min. All the pellets were dissolved in 500 μL DMSO and read spectrophotometrically at 500 nm. IC50 was calculated by nonlinear regression analysis. Doxorubicin (HCT116) and tamoxifen (IGROV-1 and OVCAR-3) were used as positive control.

5-lipoxygenase = molecular target: T1, 5-lipoxygenase (Glycine max, UniProt P08170); assay: 5-Lipoxygenase inhibitory assay (linoleic acid, 234 nm); format: biochemical, Soybean; conditions: for inhibition at 80 µM: read-out: 5-Lipoxygenase Inhibitory (% at 80 µmol/L)
T1 sequence (P08170 1-839): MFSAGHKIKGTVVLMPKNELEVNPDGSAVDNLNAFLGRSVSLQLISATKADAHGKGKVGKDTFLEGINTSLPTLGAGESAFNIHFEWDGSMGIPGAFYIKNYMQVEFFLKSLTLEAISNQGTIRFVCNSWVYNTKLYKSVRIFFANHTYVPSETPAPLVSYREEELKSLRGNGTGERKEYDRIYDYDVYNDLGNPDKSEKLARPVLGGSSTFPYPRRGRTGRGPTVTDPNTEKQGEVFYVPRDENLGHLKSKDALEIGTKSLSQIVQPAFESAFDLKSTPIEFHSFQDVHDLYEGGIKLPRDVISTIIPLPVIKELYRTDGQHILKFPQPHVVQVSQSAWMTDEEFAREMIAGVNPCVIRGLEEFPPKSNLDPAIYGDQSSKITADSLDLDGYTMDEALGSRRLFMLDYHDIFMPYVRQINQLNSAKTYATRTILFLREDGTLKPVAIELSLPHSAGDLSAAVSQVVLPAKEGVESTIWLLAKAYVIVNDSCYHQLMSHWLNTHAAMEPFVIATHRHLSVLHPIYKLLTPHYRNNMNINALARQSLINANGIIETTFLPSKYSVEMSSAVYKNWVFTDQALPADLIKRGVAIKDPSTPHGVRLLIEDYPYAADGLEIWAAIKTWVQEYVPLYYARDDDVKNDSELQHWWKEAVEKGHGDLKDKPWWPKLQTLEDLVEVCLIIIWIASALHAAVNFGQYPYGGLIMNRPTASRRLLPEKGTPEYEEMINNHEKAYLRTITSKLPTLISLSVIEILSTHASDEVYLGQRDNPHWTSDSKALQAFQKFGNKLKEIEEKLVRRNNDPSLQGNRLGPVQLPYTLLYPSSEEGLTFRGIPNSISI
Description: The anti-inflammatory activity activities of the isolates was determined on Soybean lipoxygenase as described by Khlifi et al. with some modifications. 20 µL of each compound was mixed individually with 150 µL sodium phosphate buffer (pH 7.4) containing 20 µL of 5-lipoxygenase and 60 µL of linoleic acid (3.5 mM), yielding a final volume of 250 µL. […] The mixture was incubated at 25 °C for 10 min, and the absorbance was determined at 234 nm. The absorption change with the conversion of linoleic acid to 13-hydroperoxyoctadeca-9,11-dienoate (characterized by the appearance of the conjugated diene at 234 nm) was followed for 10 min at 25 °C. […] All measurements were performed in triplicate.

[2] = MTT cytotoxicity assay, IGROV-1; format: cell-based; conditions: human, IGROV-1 ovary cells; IGROV-1, MTT; read-out: Cytotoxic Activity (IC50 µmol/L) IGROV-1
Description: as §1

[3] = MTT cytotoxicity assay, OVCAR-3; format: cell-based; conditions: human, OVCAR-3 ovary cells; OVCAR-3, MTT; read-out: Cytotoxic Activity (IC50 µmol/L) OVCAR-3
Description: as §1

[4] = ABTS radical-scavenging test; conditions: mean ± SD of three measurements; read-out: IC50 (µmol/L) ABTS+ Assay
Description: The radical scavenging capacity of the samples for the ABTS (2,2′-azinobis-3-ethylbenzothiazoline-6-sulphonate) radical cation was determined as described by Khlifi et al., [33] with some modifications. ABTS was generated by mixing a 7 mM of ABTS at pH 7.4 (5 mM NaH2PO4, 5 mM Na2HPO4 and 154 mM NaCl) with 2.5 mM potassium persulfate (final concentration) followed by storage in the dark at room temperature for 16 h before use. The mixture was diluted with ethanol to give an absorbance of 0.70 ± 0.02 units at 734 nm using spectrophotometer. For each sample, diluted solution (20 μL) was allowed to react with fresh ABTS solution (180 μL), and then the absorbance was measured 6 min after initial mixing. […] The capacity of free radical scavenging IC50 was determined using the same previously used equation for the DPPH method. All measurements were performed in triplicate.

[5] = system: colon cancer cell line LoVo; set-up: method as in PMID 15387667; conditions: read-out: IC50 against LoVo; cited from earlier work
[6] = DPPH free radical scavenging test; conditions: mean ± SD of three measurements; read-out: IC50 (µmol/L) DPPH Assay
Description: The antioxidant activity of compounds was assessed according to their DPPH scavenging ability as described by Khlifi et al., [33] with some modifications. Reaction mixtures, containing 0.1 mL of the relevant compounds solution in methanol, with concentrations ranging 3 mg/mL and 0.1 mL of a 0.2 mM DPPH methanolic solution, were added to 96-well microtiter plates and incubated at 25 °C for 30 min. Absorbances were measured at 520 nm, the wavelength of maximum absorbance of DPPH, were recorded as A(sample). A blank experiment was also carried out applying the same procedure to a solution without the test material and the absorbance was recorded as A(blank).
Ascorbic acid was used as a standard. All measurements were performed in triplicate.

[7] = system: human promyelocytic leukemia cell HL-60; set-up: method as in PMID 15387667; conditions: read-out: IC50 against HL-60; cited from earlier work
LoVo/Doxo = system: LoVo/Doxo; set-up: method as in PMID 15387667; conditions: read-out: IC50 against LoVo/Doxo; cited from earlier work
[8] = previously tested, cited from earlier work
[9] = system: human fibrosarcoma cell line HT-1080; set-up: method as in PMID 15387667; conditions: read-out: IC50 against HT-1080; cited from earlier work
liver cell line Hep-G2 = system: liver cell line Hep-G2; set-up: method as in PMID 18481014; conditions: read-out: IC50 against Hep-G2; cited from earlier work
[10] = system: 5-lipoxygenase isolated from rat basophilic leukaemia cells (RBL-1); set-up: method as in doi:10.1016/j.foodchem.2009.09.088; conditions: at 20 µmol/L; cited from earlier work
[11] = set-up: method as in doi:10.1016/j.foodchem.2011.09.005; conditions: previously tested; read-out: hydrogen peroxide (H2O2) inhibition IC50; cited from earlier work
[12] = set-up: method as in doi:10.1016/j.foodchem.2011.09.005; conditions: previously tested; read-out: Fe3+ reducing power ability IC50; cited from earlier work
[13] = system: human chronic myelogenous leukemia cell line K562; set-up: method as in PMID 22913434; conditions: read-out: IC50 against K562; cited from earlier work
[14] = read-out: DPPH radical scavenging activity IC50

Row | SMILES | IC50 at 18 h [1] [µmol/L] | inhibition at 80 µM (5-lipoxygenase) [%] | IC50 at 18 h [2] [µmol/L] | IC50 at 18 h [3] [µmol/L] | 5-Lipoxygenase Inhibitory (% at 80 µmol/L) (5-lipoxygenase) | IC50 [4] [µmol/L] | IC50 [6] [µmol/L] | further results
1 | C/C(O[C@@H]1O[C@H](CO)[C@@H](O)[C@H](O)[C@H]1O)=C1/C=CC(=O)O1 [Compound 1, (E)-5-Ethylidenefuran-2(5H)-one-5-O-β-D-glucopyranoside] | > 100 | 16.9 ± 1.2 | > 100 | > 100 |  |  |  | 
2 | C/C(=C\C(=O)O)CO [Compound 2, 4-Hydroxy-3-methylbut-2-enoic acid] | > 100 | 0 | > 100 | > 100 | did not exhibit activities |  |  | 
3 | CC1=CC(=O)C2CC1(O[C@@H]1O[C@H](CO)[C@@H](O)[C@H](O)[C@H]1O)C2(C)C (stereo partly drawn) [Compound 3, Verbenone-5-O-β-D-glucopyranoside] | > 100 | 12.4 ± 0.8 | > 100 | > 100 |  |  |  | 
4 | O=C(/C=C/c1ccc(O)c(O)c1)O[C@@H]1C[C@](O)(C(=O)O)C[C@@H](O)[C@H]1O [Compound 4, 5-O-Caffeoylquinic acid] | > 100 | 17.1 ± 1.1 | > 100 | > 100 |  |  |  | 
5 | COC(=O)/C=C/c1ccc(O)c(O)c1 [Compound 5, Methyl caffeate] | 22.5 ± 2.4 | 0 | 17.8 ± 1.1 | 25 ± 1.1 | did not exhibit activities | 40.8 ± 0.4 | 39.2 ± 0.5 | IC50 [5]: 5.8 ± 1.1 µM; IC50 [7]: 7.5 ± 1.6 µM; IC50 (LoVo/Doxo): ≥ 40 µM; IC50 [8, 14]: 14 ± 2.3 µM; IC50 [9]: 11.1 ± 3.5 µM
6 | COC(=O)[C@]1(O)C[C@@H](OC(=O)/C=C/c2ccc(O)c(O)c2)[C@@H](O)[C@H](OC(=O)/C=C/c2ccc(O)c(O)c2)C1 [Compound 6, Methyl 3,5-O-Dicaffeoylquinate] | > 100 |  | > 100 | > 100 |  | 20 ± 0.3 | 26.6 ± 1.3 | IC50 (liver cell line Hep-G2): 72.7 ± 6.2 µM; percent inhibition of 5-lipoxygenase (RBL-1) [10]: 15.1%; IC50 (5-lipoxygenase): 5.3 µM and 5.28 µM; IC50 [11]: 316.4 ± 2.86 µM; IC50 [12]: 270 ± 7.37 µM; IC50 ([8]; read-out: DPPH IC50): 10.3 ± 0.24 µM
7 | O=C(/C=C/c1ccc(O)c(O)c1)O[C@@H]1C[C@](O)(C(=O)O)C[C@@H](OC(=O)/C=C/c2ccc(O)c(O)c2)[C@H]1O [Compound 7, 3,5-O-Dicaffeoylquinic acid] | > 100 |  | > 100 | > 100 |  | 19.7 ± 0.7 | 18 ± 0.5 | percent inhibition of 5-lipoxygenase (RBL-1) [10]: inactive; IC50 (5-lipoxygenase): 10 ± 0.2 µM; IC50 [8, 14]: 18.2 ± 0.5 µM
8 | COc1cc(-c2oc3cc(O)cc(O)c3c(=O)c2O[C@@H]2O[C@H](CO[C@@H]3O[C@@H](C)[C@H](O)[C@@H](O)[C@H]3O)[C@@H](O)[C@H](O)[C@H]2O)ccc1O [Compound 8, Isorhamnetin-3-O-α-L-rhamnopyranosyl(1→6)-β-D-glucopyranoside,narcissin] | > 100 | 0 | > 100 | > 100 | did not exhibit activities | > 300 | > 300 | DPPH radical scavenging activity [8]: no activity; IC50 [13]: 800 µM
9 | CC(C)(O)[C@@H]1Cc2cc3ccc(=O)oc3cc2O1 [Compound 9, (−)-Marmesin] | 50 ± 4.9 | 0 | > 100 | > 100 | did not exhibit activities |  |  | 
10 | CC(C)=CCOc1c2ccoc2cc2oc(=O)ccc12 [Compound 10, Isoimperatorin] | > 100 | 0 | > 100 | > 100 | did not exhibit activities |  |  | 
11 | Cc1ccc(C)c(C=O)c1C [Compound 11, 2,3,6-Trimethylbenzaldehyde] | > 100 | 0 | > 100 | > 100 | did not exhibit activities |  |  | 
12 | COc1cccc2c1C(=O)c1c(O)c3c(c(O)c1C2=O)C[C@@](O)(C(=O)CO)C[C@@H]3O[C@H]1C[C@H](N)[C@H](O)[C@H](C)O1 [Doxorubicin, reference compound] | 0.18 ± 0.01 |  |  |  |  |  |  | 
13 | CC/C(=C(\c1ccccc1)c1ccc(OCCN(C)C)cc1)c1ccccc1 [Tamoxifen, tamoxifen, reference compound] |  |  | 2 ± 0.1 | 1.3 ± 0.1 |  |  |  | 
14 | O=C1O[C@H]([C@@H](O)CO)C(O)=C1O [Vitamin C, ascorbic acid, reference compound] |  |  |  |  |  | 23.3 ± 0.1 | 25 ± 1.1 | 
